Laboratory results published in patent US10329278B2, “Pharmaceutical compounds” (Heptares Therapeutics Limited, priority 2017, dated 2019).
“And” between values parts separate entries of the source, which are not always exact repeats. Equal entries are not always repeated. Where two headings read alike, the source gives them in different places.

Tests used:
[1] = biological target: T1, human muscarinic M4 receptor (Homo sapiens, UniProt P08173); assay: Alphascreen Surefire phospho-ERK1/2 functional assay, M4; format: cell-based; conditions: for EC50 / % Emax cf. ACh (M4) / pEC50 M4: CHO cells stably expressing human M4; for EC50 / pEC50 M4: agonist 5 min, 37° C.; for EC50: read-out: pEC50 M4 (converted); for Emax: CHO
T1 construct: expressed in transfected cells
T1 sequence (P08173 1-479): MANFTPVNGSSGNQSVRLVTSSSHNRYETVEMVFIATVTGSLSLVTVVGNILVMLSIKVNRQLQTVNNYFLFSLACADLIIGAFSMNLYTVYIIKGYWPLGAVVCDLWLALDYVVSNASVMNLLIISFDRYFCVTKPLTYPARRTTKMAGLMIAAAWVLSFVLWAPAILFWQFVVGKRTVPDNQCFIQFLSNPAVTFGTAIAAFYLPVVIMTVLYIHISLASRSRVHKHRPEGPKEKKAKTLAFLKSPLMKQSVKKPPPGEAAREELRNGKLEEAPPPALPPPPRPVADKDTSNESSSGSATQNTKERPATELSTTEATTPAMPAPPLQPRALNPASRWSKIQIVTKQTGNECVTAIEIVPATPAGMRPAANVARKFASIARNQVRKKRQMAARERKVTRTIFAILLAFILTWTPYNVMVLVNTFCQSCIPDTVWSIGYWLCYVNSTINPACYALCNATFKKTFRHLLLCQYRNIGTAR
Experimental: (§1) ERK1/2 phosphorylation is a downstream consequence of both Gq/11 and Gi/o protein coupled receptor activation, making it highly suitable for the assessment of M1, M3 (Gq/11 coupled) and M2, M4 receptors (Gi/o coupled), rather than using different assay formats for different receptor subtypes. CHO cells stably expressing the human muscarinic M1, M2, M3 or M4 receptor were plated (25K/well) onto 96-well tissue culture plates in MEM-alpha+10% dialysed FBS. Once adhered, cells were serum-starved overnight. Agonist stimulation was performed by the addition of 5 μL agonist to the cells for 5 min (37° C.). Media was removed and 50 μL of lysis buffer added. After 15 min, a 4 μL sample was transferred to 384-well plate and 7 μL of detection mixture added.

[2] = biological target: T2, human muscarinic M1 receptor (Homo sapiens, UniProt P11229); assay: Alphascreen Surefire phospho-ERK1/2 functional assay, M1; format: cell-based; conditions: for EC50 / % Emax cf. ACh (M1) / pEC50 M1: CHO cells stably expressing human M1; for EC50 / pEC50 M1: agonist 5 min, 37° C.; for EC50: read-out: pEC50 M1 (converted); for Emax: CHO, read-out: % Emax cf. ACh (M1), CHO cells stably expressing human M1; for Emax / % Emax cf. ACh (M1): relative to ACh
T2 sequence (P11229 1-460): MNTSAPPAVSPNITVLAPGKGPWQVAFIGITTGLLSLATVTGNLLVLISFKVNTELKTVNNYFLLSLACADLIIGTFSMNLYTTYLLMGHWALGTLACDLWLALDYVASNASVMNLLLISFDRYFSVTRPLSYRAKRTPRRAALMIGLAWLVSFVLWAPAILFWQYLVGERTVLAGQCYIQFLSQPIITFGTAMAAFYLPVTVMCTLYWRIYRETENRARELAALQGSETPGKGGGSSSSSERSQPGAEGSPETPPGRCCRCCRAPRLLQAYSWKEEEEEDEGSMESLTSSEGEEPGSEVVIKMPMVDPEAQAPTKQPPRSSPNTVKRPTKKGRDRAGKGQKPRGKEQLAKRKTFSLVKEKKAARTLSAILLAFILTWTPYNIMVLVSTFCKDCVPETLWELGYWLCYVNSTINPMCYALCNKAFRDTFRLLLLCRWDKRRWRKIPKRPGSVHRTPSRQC
Experimental: as §1

[3] = read-out: % Emax cf. ACh (M4), CHO cells stably expressing human M4, relative to ACh

In the case of `CCOC(=O)N1CCC2(CC(N3CC4C(C3)C4N(CC)CC(F)(F)F)C2)C1` (mixture of isomers) [2-27 Mixture of isomers], the EC50 [1] is reported as 1480 nM, the Emax [1, 3] is reported as 32% and the EC50 [2] is reported as over 20000 nM. The Emax [2] was 20%.
With `CCOC(=O)N1CCC2(CC(N3CC4C(C3)C4C(CC)=NOC)C2)C1` (single isomer, unassigned) [2-25 Isomer 2] the EC50 [1] was 437 nM, the Emax [1, 3] was 35% and the EC50 [2] was 1290 nM. For the same compound, the “% Emax cf. ACh (M1)” value [2] was 37%.
In the case of `CCOC(=O)N1CCC2(CC(N3CC4C(C3)C4OC(C)c3ccccc3)C2)C1` (single isomer, unassigned) [2-28 Isomer 1], the EC50 [1] is reported as over 20000 nM, the “% Emax cf. ACh (M4)” value ([1]; relative to ACh) is reported as 21% and the EC50 [2] is reported as 575 nM. The “% Emax cf. ACh (M1)” value [2] was 58%.
`CCOC(=O)N1C2CCC1CC(N1CC3C(C1)C3C(=O)N(C)CC)C2` (single isomer, unassigned; isomer 1) [7-2 Isomer 1] was tested, and the “pEC50 M4” value [1] was under 4.70, the “% Emax cf. ACh (M4)” value ([1]; relative to ACh) was 14% and the “pEC50 M1” value [2] was 6.11. The “% Emax cf. ACh (M1)” value [2] was 116%.
With `CCOC(=O)N1C2CCC1CC(N1CC3C(C1)C3C(=O)N(CC)CC)C2` (single isomer, unassigned; isomer 1) [7-3 Isomer 1] the “pEC50 M4” value [1] was 5.58, the “% Emax cf. ACh (M4)” value ([1]; relative to ACh) was 45% and the “pEC50 M1” value [2] was 6.78. The “% Emax cf. ACh (M1)” value [2] was 123%.
`CCOC(=O)N1C2CCCC1CC(N1CC3C(C1)C3C(=O)N(CC)CC)C2` (single isomer, unassigned; isomer 1) [9-2 Isomer 1] was tested, and the “pEC50 M4” value [1] was 5.87, the “% Emax cf. ACh (M4)” value ([1]; relative to ACh) was 41% and the “pEC50 M1” value [2] was 6.56. For the same compound, the “% Emax cf. ACh (M1)” value [2] was 102%.
For `CCN(CC)C(=O)C1C2CN(C3CC4CCCC(C3)N4C(=O)OC)CC21` (single isomer, unassigned; isomer 1) [9-3 Isomer 1], the “pEC50 M4” value [1] was 6.12, the “% Emax cf. ACh (M4)” value ([1]; relative to ACh) was 60% and the “pEC50 M1” value [2] was 6.40. The “% Emax cf. ACh (M1)” value [2] was 106%.
In the case of `CCOC(=O)N1C2COCC1CC(N1CC3C(C1)C3C(=O)N(C)CC)C2` (single isomer, unassigned; isomer 1) [10-1 Isomer 1], the “pEC50 M4” value [1] is reported as under 4.70, the “% Emax cf. ACh (M4)” value ([1]; relative to ACh) is reported as 24% and 15% and the “pEC50 M1” value [2] is reported as 5.94 and 5.76. The “% Emax cf. ACh (M1)” value [2] was 110% and 78%.
For `COC(=O)N1C2COCC1CC(N1CC3C(C1)C3C(=O)N(C)C(C)C)C2` (single isomer, unassigned; isomer 1) [10-5 Isomer 1], the “pEC50 M4” value [1] was 5.91, the “% Emax cf. ACh (M4)” value ([1]; relative to ACh) was 81% and the “pEC50 M1” value [2] was 6.30. For the same compound, the “% Emax cf. ACh (M1)” value [2] was 99%.
In the case of `CCN(C(=O)C1C2CN(C3CC4COCC(C3)N4C(=O)OC)CC21)C(C)C` (single isomer, unassigned; isomer 1) [10-7 Isomer 1], the “pEC50 M4” value [1] is reported as 6.79, the “% Emax cf. ACh (M4)” value ([1]; relative to ACh) is reported as 69% and the “pEC50 M1” value [2] is reported as 7.42. For the same compound, the “% Emax cf. ACh (M1)” value [2] was 99%.
For `CCOC(=O)N1C2COCC1CC(N1CC3C(C1)C3C(=O)N(C)C1CC1)C2` (single isomer, unassigned; isomer 1) [10-8 Isomer 1], the “pEC50 M4” value [1] was 4.84, the “% Emax cf. ACh (M4)” value ([1]; relative to ACh) was 47% and the “pEC50 M1” value [2] was 5.99. The “% Emax cf. ACh (M1)” value [2] was 116%.
For `CCOC(=O)C1C2CN(C3CC4CCC(C3)N4C(=O)OCC)CC21` (single isomer, unassigned; isomer 2) [7-1 Isomer 2], the “pEC50 M4” value [1] was 5.80, the “% Emax cf. ACh (M4)” value ([1]; relative to ACh) was 62% and the “pEC50 M1” value [2] was 5.67. For the same compound, the “% Emax cf. ACh (M1)” value [2] was 83%.
For `CCOC(=O)N1C2CCC1CC(N1CC3C(C1)C3C(=O)N(C)CC)C2` (single isomer, unassigned; isomer 2) [7-2 Isomer 2], the “pEC50 M4” value [1] was 4.96, the “% Emax cf. ACh (M4)” value ([1]; relative to ACh) was 53% and the “pEC50 M1” value [2] was 6.66. The “% Emax cf. ACh (M1)” value [2] was 113%.
`CCOC(=O)N1C2CCC1CC(N1CC3C(CN(CC)C(C)=O)C3C1)C2` (single isomer, unassigned; isomer 2) [7-5 Isomer 2] was tested, and the “pEC50 M4” value [1] was 6.13, the “% Emax cf. ACh (M4)” value ([1]; relative to ACh) was 38% and the “pEC50 M1” value [2] was under 4.70. For the same compound, the “% Emax cf. ACh (M1)” value [2] was 23%.
`CCOC(=O)N1C2CCC1CC(N1CC3C(C1)C3c1csc(C)n1)C2` (single isomer, unassigned; isomer 2) [7-6 Isomer 2] was tested, and the “pEC50 M4” value [1] was 6.21, the “% Emax cf. ACh (M4)” value ([1]; relative to ACh) was 73% and the “pEC50 M1” value [2] was 5.94. For the same compound, the “% Emax cf. ACh (M1)” value [2] was 56%.
With `CCOC(=O)N1C2CCCC1CC(N1CC3C(C1)C3C(=O)N(C)CC)C2` (single isomer, unassigned; isomer 2) [9-1 Isomer 2] the “pEC50 M4” value [1] was under 4.70, the “% Emax cf. ACh (M4)” value ([1]; relative to ACh) was 24% and the “pEC50 M1” value [2] was 6.01. For the same compound, the “% Emax cf. ACh (M1)” value [2] was 93%.
With `CCN(CC)C(=O)C1C2CN(C3CC4COCC(C3)N4C(=O)OC)CC21` (single isomer, unassigned; isomer 2) [10-3 Isomer 2] the “pEC50 M4” value [1] was under 4.70, the “% Emax cf. ACh (M4)” value ([1]; relative to ACh) was 25% and the “pEC50 M1” value [2] was 5.75. For the same compound, the “% Emax cf. ACh (M1)” value [2] was 81%.
In the case of `COC(=O)N1C2COCC1CC(N1CC3C(C1)C3C(=O)N(C)C(C)C)C2` (single isomer, unassigned; isomer 2) [10-5 Isomer 2], the “pEC50 M4” value [1] is reported as 4.90, the “% Emax cf. ACh (M4)” value ([1]; relative to ACh) is reported as 90% and the “pEC50 M1” value [2] is reported as 5.66. The “% Emax cf. ACh (M1)” value [2] was 101%.
In the case of `CCN(C(=O)C1C2CN(C3CC4COCC(C3)N4C(=O)OC)CC21)C(C)C` (single isomer, unassigned; isomer 2) [10-7 Isomer 2], the “pEC50 M4” value [1] is reported as 6.23, the “% Emax cf. ACh (M4)” value ([1]; relative to ACh) is reported as 64% and the “pEC50 M1” value [2] is reported as 6.83. For the same compound, the “% Emax cf. ACh (M1)” value [2] was 100%.
For `CCOC(=O)N1C2COCC1CC(N1CC3C(C1)C3C(=O)N(C)C1CC1)C2` (single isomer, unassigned; isomer 2) [10-8 Isomer 2], the “pEC50 M4” value [1] was 5.67, the “% Emax cf. ACh (M4)” value ([1]; relative to ACh) was 32% and the “pEC50 M1” value [2] was 5.65. For the same compound, the “% Emax cf. ACh (M1)” value [2] was 85%.
`CCOC(=O)N1C2COCC1CC(N1CC3C(C1)C3C(=O)N(CC)C1CC1)C2` (single isomer, unassigned; isomer 2) [10-9 Isomer 2] was tested, and the “pEC50 M4” value [1] was 5.47, the “% Emax cf. ACh (M4)” value ([1]; relative to ACh) was 38% and the “pEC50 M1” value [2] was 6.57. The “% Emax cf. ACh (M1)” value [2] was 105%.
`COC(=O)N1C2COCC1CC(N1CC3C(C1)C3C(=O)N1CCCCC1)C2` (single isomer, unassigned; isomer 2) [10-12 Isomer 2] was tested, and the “pEC50 M4” value [1] was 4.85, the “% Emax cf. ACh (M4)” value ([1]; relative to ACh) was 86% and the “pEC50 M1” value [2] was 5.99. For the same compound, the “% Emax cf. ACh (M1)” value [2] was 99%.
`CC(=O)OCC[N+](C)(C)C` [ACh, acetylcholine, reference compound] showed an Emax ([1]; read-out: % Emax cf. ACh (M4)) of 109%.
Compound `CCOC(=O)N1CC2(CC(N3C[C@@H]4[C@H](C3)[C@H]4C(=O)N(CC)CC)C2)C1` [Example 1-2, ethyl 6-[(1R,5S,6r)-6-(diethylcarbamoyl)-3-azabicyclo[3.1.0]hex-3-yl]-2-azaspiro[3.3]heptane-2-carboxylate] has an EC50 [1] of 955 nM, an Emax [1, 3] of 81% and an EC50 [2] of 132 nM. It also gave an Emax [2] of 110%.
With `CCOC(=O)N1CC2(CC(N3C[C@@H]4[C@H](C3)[C@H]4c3csc(C)n3)C2)C1` [Example 1-4, ethyl 6-[(1R,5S,6r)-6-(2-methyl-1,3-thiazol-4-yl)-3-azabicyclo[3.1.0]hex-3-yl]-2-azaspiro[3.3]heptane-2-carboxylate] the EC50 [1] was 617 nM, the Emax [1, 3] was 47% and the EC50 [2] was 4570 nM. For the same compound, the Emax [2] was 55%.
For `CCOC(=O)N1CCC(N2C[C@@H]3[C@H](C2)[C@H]3C(=O)N(CC)CC)CC1` [Example 4-1], the EC50 [1] was 708 nM, the Emax [1, 3] was 35% and the EC50 [2] was 234 nM. It also gave an Emax [2] of 84%.
